The values below come from patent US9895381B2, “Vitamin D receptor agonists to treat diseases involving CXCL12 activity” (Salk Institute for Biological Studies, priority 2013, dated 2018).

The subject of this assay is wild-type C57BL6/J mice. Kind of assay: Cerulein-induced chronic pancreatitis model. Format: in vivo, mouse. Conditions: for inflammation and fibrosis: cerulein plus 40 μg/kg calcipotriol i.p. vs cerulein alone. The procedure:
Tissues were embedded in O.C.T. and frozen sections were fixed in ice-cold methanol at −20° C. for 20 min. Sections were blocked in PBS+0.2% BSA+0.05% Triton X-100 (blocking solution) for 1 h at room temperature. Primary antibody dilutions in blocking solution were as follows: anti-phospho-STAT3(Tyr705), 1:100 (Cell Signaling Technology); anti-Collagen I, 1:500 (Abcam), anti-GFAP, 1:100 (Abcam); anti-CD45, 1:100 (BD Pharmingen). Primary antibody incubations were performed in a humidified chamber at 4° C. overnight. Sections were washed 3 times with PBS+0.05% Triton X-100, then incubated in secondary antibodies for 1 h at room temperature, protected from light. Secondary antibodies used included Alexa Fluor 594 goat anti-rabbit IgG, Alexa Fluor 488 goat anti-rabbit IgG, Alexa Fluor 594 goat anti-rat IgG, and Alexa Fluor 488 goat anti-mouse IgG (Molecular Probes) and were used at 1:250 in blocking solution. Sections were washed 3 times with PBS and mounted using Vectastain mounting medium with or without DAPI. Fluorescence was visualized on a Leica DM5000B fluorescent microscope and quantified using ImageJ. Chronic pancreatitis was induced in wild-type C57BL6/J mice beginning at 8 weeks of age. Ten animals per cohort received intraperitoneal injections of saline, 50 μg/kg cerulein, or cerulein plus 40 μg/kg calcipotriol. Cerulein injections were administered as 6 hourly injections 2 times per week for 12 weeks and analyzed 1 week after final cerulein injection, adapted from previous studies (Sah et al., 2013; Treiber et al., 2011; Yoo et al., 2005). Calcipotriol injections were administered 3 times per week for the duration of the chronic pancreatitis study. For acute pancreatitis studies, 8-week-old wild-type or Vdr−/− mice received 6 hourly intraperitoneal injections of 50 μg/kg cerulein on days 1, 3, and 5, with or without single daily injections of 40 μg/kg calcipotriol. Mice were sacrificed on day 6. At necropsy, pancreata were harvested and digested for PSC isolation as described above, or prepared for histological analysis as described herein. Histological sections were cut from formalin-fixed tissues at 7 μm thickness Sirius Red/Fast Green staining (Chondrex) was performed per manufacturer's instructions. Images were obtained and quantification of Sirius Red-positive area performed using Nuance 3.0.1.2 software. Six independent fields were captured per sample.

On to `C=C1/C(=C\C=C2/CCC[C@]3(C)[C@@H]([C@H](C)/C=C/[C@@H](O)C4CC4)CC[C@@H]23)C[C@@H](O)C[C@@H]1O` [Cal, 1α,24-(OH)2-24-cyclopropyl-D3], for which the inflammation and fibrosis result was “attenuated inflammation and fibrosis”. Also, for the setting “listed as calcipotriol”, the inflammation and fibrosis result was “markedly reduced inflammation and fibrosis”. Further, for the setting “cerulein+Cal 12 weeks”, the “Acta2 expression in isolated PSCs” value is given as “trended downwards” and the phospho-Stat3 induction entry is given as “reduced induction of phospho-Stat3”. In addition, the “expression of activation and cancer signature genes in isolated PSCs” value (cerulein+Cal 12 weeks vs controls) is given as “decreased”.
